Test results as given in PubChem BioAssay (NCI).
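Protocol summary: plate cells (96-well), add compound at 5 concentrations, incubate 48 h, interpolate endpoints linearly. TGI: concentration producing complete growth inhibition.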

Legend:
Assay in all cases: NCI-60 cell line screen, 48 h
[1] = test system: OVCAR-5 ovarian
[2] = test system: CAKI-1 renal
[3] = test system: OVCAR-3 ovarian
[4] = test system: SR leukemia
[5] = test system: TK-10 renal
[6] = test system: PC-3 prostate
[7] = test system: SK-MEL-28 melanoma
[8] = test system: SN12C renal
[9] = test system: A549 NSCLC
[10] = test system: HS 578T breast
[11] = test system: MDA-N
[12] = test system: IGROV1 ovarian
[13] = test system: MCF7 breast
[14] = test system: LOX IMVI melanoma
[15] = test system: MDA-MB-435
[16] = test system: HCT-15 colon
[17] = test system: 786-0 renal
[18] = test system: MDA-MB-231 breast
[19] = test system: SK-MEL-5 melanoma
[20] = test system: SW-620 colon
[21] = test system: SK-MEL-2 melanoma
[22] = test system: COLO 205 colon
[23] = test system: HCT-116 colon
[24] = test system: U251 CNS
[25] = test system: HOP-92 NSCLC
[26] = test system: UACC-257 melanoma
[27] = test system: SF-295 CNS
[28] = test system: DU-145 prostate
[29] = test system: M14 melanoma
[30] = test system: KM12 colon
[31] = test system: UACC-62 melanoma
[32] = test system: SF-539 CNS
[33] = test system: ACHN renal
[34] = test system: A498 renal
[35] = test system: MALME-3M melanoma
[36] = test system: NCI-H522 lung
[37] = test system: EKVX NSCLC
[38] = test system: SF-268 CNS
[39] = test system: NCI-H460 lung
[40] = test system: HCC-2998 colon
[41] = test system: CCRF-CEM leukemia
[42] = test system: SNB-75 CNS
[43] = test system: NCI-H23 lung
[44] = test system: HT29 colon
[45] = test system: T-47D breast
[46] = test system: HOP-62 NSCLC
[47] = test system: NCI/ADR-RES ovarian
[48] = test system: SNB-19 CNS
[49] = test system: NCI-H226 lung
[50] = test system: RPMI-8226 leukemia
[51] = test system: BT-549 breast
[52] = test system: UO-31 renal
[53] = test system: RXF 393 renal
[54] = test system: K-562 leukemia
[55] = test system: OVCAR-8 ovarian
[56] = test system: MOLT-4 leukemia
[57] = test system: HL-60(TB) leukemia
[58] = test system: OVCAR-4 ovarian
[59] = test system: SK-OV-3 ovarian

Question: Which TGI [1] does the source give for `ClC1=C(Cl)C(Cl)(Cl)SS1` here?
Answer: The TGI was greater than 10 µM.

Question: What about the TGI [2] of the same compound?
Answer: Its TGI is 6.76 µM.

Question: What about the TGI [3] of the same compound?
Answer: Its TGI is greater than 9.5 µM.

Question: What about the TGI [4] of the same compound?
Answer: Its TGI is 5.35 µM.

Question: What about the TGI [5] of the same compound?
Answer: The TGI was greater than 10 µM.

Question: And the TGI [6]?
Answer: The TGI was greater than 10 µM.

Question: And the TGI [7]?
Answer: Its TGI is greater than 10 µM.

Question: What about the TGI [8] of the same compound?
Answer: Its TGI is greater than 10 µM.

Question: And the TGI [9]?
Answer: Its TGI is greater than 10 µM.

Question: What about the TGI [10] of the same compound?
Answer: Its TGI is greater than 10 µM.

Question: And the TGI [11]?
Answer: The TGI was greater than 10 µM.

Question: And the TGI [12]?
Answer: Its TGI is greater than 10 µM.

Question: What about the TGI [13] of the same compound?
Answer: The TGI was greater than 10 µM.

Question: What about the TGI [14] of the same compound?
Answer: The TGI was greater than 10 µM.

Question: And the TGI [15]?
Answer: Its TGI is greater than 10 µM.

Question: What about the TGI [16] of the same compound?
Answer: The TGI was greater than 10 µM.

Question: And the TGI [17]?
Answer: Its TGI is greater than 6.03 µM.

Question: And the TGI [18]?
Answer: Its TGI is greater than 10 µM.

Question: What about the TGI [19] of the same compound?
Answer: The TGI was greater than 10 µM.

Question: And the TGI [20]?
Answer: The TGI was 5.82 µM.

Question: What about the TGI [21] of the same compound?
Answer: The TGI was greater than 10 µM.

Question: And the TGI [22]?
Answer: Its TGI is 3.73 µM.

Question: And the TGI [23]?
Answer: Its TGI is greater than 6.72 µM.

Question: What about the TGI [24] of the same compound?
Answer: The TGI was greater than 10 µM.

Question: And the TGI [25]?
Answer: Its TGI is greater than 8.63 µM.

Question: And the TGI [26]?
Answer: Its TGI is greater than 7.95 µM.

Question: What about the TGI [27] of the same compound?
Answer: The TGI was greater than 10 µM.

Question: And the TGI [28]?
Answer: The TGI was greater than 10 µM.

Question: And the TGI [29]?
Answer: The TGI was greater than 10 µM.

Question: And the TGI [30]?
Answer: Its TGI is greater than 10 µM.

Question: What about the TGI [31] of the same compound?
Answer: The TGI was greater than 10 µM.

Question: And the TGI [32]?
Answer: Its TGI is greater than 10 µM.

Question: What about the TGI [33] of the same compound?
Answer: The TGI was greater than 10 µM.

Question: What about the TGI [34] of the same compound?
Answer: Its TGI is greater than 10 µM.

Question: And the TGI [35]?
Answer: Its TGI is greater than 6.61 µM.

Question: What about the TGI [36] of the same compound?
Answer: The TGI was greater than 6.85 µM.

Question: And the TGI [37]?
Answer: Its TGI is greater than 10 µM.

Question: What about the TGI [38] of the same compound?
Answer: The TGI was greater than 10 µM.

Question: What about the TGI [39] of the same compound?
Answer: Its TGI is greater than 10 µM.

Question: What about the TGI [40] of the same compound?
Answer: Its TGI is greater than 10 µM.

Question: What about the TGI [41] of the same compound?
Answer: Its TGI is greater than 8 µM.

Question: And the TGI [42]?
Answer: The TGI was greater than 10 µM.

Question: And the TGI [43]?
Answer: Its TGI is greater than 10 µM.

Question: What about the TGI [44] of the same compound?
Answer: Its TGI is greater than 10 µM.

Question: And the TGI [45]?
Answer: Its TGI is greater than 10 µM.

Question: And the TGI [46]?
Answer: The TGI was greater than 10 µM.

Question: What about the TGI [47] of the same compound?
Answer: The TGI was greater than 10 µM.

Question: What about the TGI [48] of the same compound?
Answer: The TGI was greater than 10 µM.

Question: And the TGI [49]?
Answer: Its TGI is greater than 10 µM.

Question: What about the TGI [50] of the same compound?
Answer: Its TGI is 6.73 µM.

Question: And the TGI [51]?
Answer: The TGI was greater than 10 µM.

Question: And the TGI [52]?
Answer: Its TGI is greater than 6.06 µM.

Question: And the TGI [53]?
Answer: Its TGI is greater than 10 µM.

Question: And the TGI [54]?
Answer: Its TGI is greater than 7.82 µM.

Question: And the TGI [55]?
Answer: Its TGI is greater than 10 µM.

Question: What about the TGI [56] of the same compound?
Answer: The TGI was 3.61 µM.

Question: And the TGI [57]?
Answer: Its TGI is greater than 7.32 µM.

Question: And the TGI [58]?
Answer: The TGI was 9.81 µM.

Question: What about the TGI [59] of the same compound?
Answer: Its TGI is greater than 10 µM.

Question: Which TGI [1] does the source give for `CCOC(=O)/C(SC#N)=C(/N)N1CCCC1` here?
Answer: The TGI was greater than 100 µM.

Question: And the TGI [2]?
Answer: Its TGI is greater than 100 µM.

Question: What about the TGI [3] of the same compound?
Answer: The TGI was greater than 100 µM.

Question: And the TGI [4]?
Answer: The TGI was greater than 100 µM.

Question: And the TGI [5]?
Answer: Its TGI is greater than 100 µM.

Question: And the TGI [6]?
Answer: Its TGI is greater than 100 µM.

Question: What about the TGI [7] of the same compound?
Answer: The TGI was greater than 100 µM.

Question: And the TGI [8]?
Answer: The TGI was greater than 100 µM.

Question: And the TGI [9]?
Answer: Its TGI is greater than 100 µM.

Question: And the TGI [10]?
Answer: Its TGI is greater than 100 µM.

Question: What about the TGI [11] of the same compound?
Answer: Its TGI is greater than 100 µM.

Question: And the TGI [12]?
Answer: The TGI was greater than 100 µM.

Question: What about the TGI [13] of the same compound?
Answer: The TGI was greater than 100 µM.

Question: What about the TGI [14] of the same compound?
Answer: The TGI was greater than 100 µM.

Question: What about the TGI [15] of the same compound?
Answer: Its TGI is greater than 100 µM.

Question: And the TGI [16]?
Answer: Its TGI is greater than 100 µM.

Question: What about the TGI [17] of the same compound?
Answer: The TGI was greater than 100 µM.

Question: What about the TGI [18] of the same compound?
Answer: Its TGI is greater than 100 µM.

Question: What about the TGI [19] of the same compound?
Answer: The TGI was greater than 100 µM.

Question: And the TGI [20]?
Answer: The TGI was greater than 100 µM.

Question: What about the TGI [21] of the same compound?
Answer: Its TGI is greater than 100 µM.

Question: What about the TGI [22] of the same compound?
Answer: The TGI was greater than 100 µM.

Question: And the TGI [23]?
Answer: Its TGI is greater than 100 µM.

Question: What about the TGI [24] of the same compound?
Answer: The TGI was greater than 100 µM.

Question: What about the TGI [25] of the same compound?
Answer: The TGI was greater than 100 µM.

Question: What about the TGI [26] of the same compound?
Answer: Its TGI is greater than 100 µM.

Question: What about the TGI [27] of the same compound?
Answer: The TGI was greater than 100 µM.

Question: And the TGI [28]?
Answer: Its TGI is greater than 100 µM.

Question: What about the TGI [29] of the same compound?
Answer: Its TGI is greater than 100 µM.

Question: And the TGI [30]?
Answer: Its TGI is greater than 100 µM.

Question: What about the TGI [31] of the same compound?
Answer: The TGI was greater than 100 µM.

Question: What about the TGI [32] of the same compound?
Answer: The TGI was greater than 100 µM.

Question: What about the TGI [33] of the same compound?
Answer: The TGI was greater than 100 µM.

Question: And the TGI [34]?
Answer: Its TGI is greater than 100 µM.

Question: And the TGI [35]?
Answer: The TGI was greater than 100 µM.

Question: What about the TGI [36] of the same compound?
Answer: The TGI was greater than 100 µM.

Question: What about the TGI [37] of the same compound?
Answer: Its TGI is greater than 100 µM.

Question: What about the TGI [38] of the same compound?
Answer: Its TGI is greater than 100 µM.

Question: What about the TGI [39] of the same compound?
Answer: Its TGI is greater than 100 µM.

Question: And the TGI [40]?
Answer: Its TGI is greater than 100 µM.

Question: And the TGI [41]?
Answer: The TGI was greater than 100 µM.

Question: And the TGI [42]?
Answer: The TGI was greater than 100 µM.

Question: And the TGI [43]?
Answer: The TGI was greater than 100 µM.

Question: What about the TGI [44] of the same compound?
Answer: The TGI was greater than 100 µM.

Question: What about the TGI [45] of the same compound?
Answer: The TGI was greater than 100 µM.

Question: What about the TGI [46] of the same compound?
Answer: Its TGI is greater than 100 µM.

Question: And the TGI [47]?
Answer: The TGI was greater than 100 µM.

Question: And the TGI [48]?
Answer: The TGI was greater than 100 µM.

Question: And the TGI [49]?
Answer: Its TGI is greater than 100 µM.

Question: What about the TGI [50] of the same compound?
Answer: The TGI was greater than 100 µM.

Question: What about the TGI [51] of the same compound?
Answer: The TGI was greater than 100 µM.

Question: And the TGI [52]?
Answer: The TGI was greater than 100 µM.

Question: And the TGI [53]?
Answer: The TGI was greater than 100 µM.

Question: And the TGI [54]?
Answer: Its TGI is greater than 100 µM.

Question: And the TGI [55]?
Answer: The TGI was greater than 100 µM.

Question: What about the TGI [56] of the same compound?
Answer: The TGI was greater than 100 µM.

Question: And the TGI [57]?
Answer: The TGI was greater than 100 µM.

Question: And the TGI [58]?
Answer: Its TGI is greater than 100 µM.

Question: And the TGI [59]?
Answer: The TGI was greater than 100 µM.
